ChEMBL document CHEMBL6092226, “Tilting the Scales toward EGFR Mutant Selectivity: Expanding the Scope of Bivalent "Type V" Kinase Inhibitors” (J Med Chem, 2024)
Calls of active or inactive are those of the source. No cut-off for these calls is given here.

Assays:
BaF3 = format: functional, cell-based; settings: Mus musculus, BaF3, 72 h
[1] = Metabolic stability in pooled male human liver microsomes at 150 uM measured after 2 hrs in presence of NADPH regenerating system by LC-MS analysis; format: ADME, Microsome
[2] = target: Myosin-IIIa (Homo sapiens) (UniProt Q8NEV4); assay: Inhibition of MYO3A (unknown origin) at 1 uM by Eurofins DiscoverX KINOMEscan analysis relative to control
Chain of Myosin-IIIa (Homo sapiens) (Q8NEV4 whole entry): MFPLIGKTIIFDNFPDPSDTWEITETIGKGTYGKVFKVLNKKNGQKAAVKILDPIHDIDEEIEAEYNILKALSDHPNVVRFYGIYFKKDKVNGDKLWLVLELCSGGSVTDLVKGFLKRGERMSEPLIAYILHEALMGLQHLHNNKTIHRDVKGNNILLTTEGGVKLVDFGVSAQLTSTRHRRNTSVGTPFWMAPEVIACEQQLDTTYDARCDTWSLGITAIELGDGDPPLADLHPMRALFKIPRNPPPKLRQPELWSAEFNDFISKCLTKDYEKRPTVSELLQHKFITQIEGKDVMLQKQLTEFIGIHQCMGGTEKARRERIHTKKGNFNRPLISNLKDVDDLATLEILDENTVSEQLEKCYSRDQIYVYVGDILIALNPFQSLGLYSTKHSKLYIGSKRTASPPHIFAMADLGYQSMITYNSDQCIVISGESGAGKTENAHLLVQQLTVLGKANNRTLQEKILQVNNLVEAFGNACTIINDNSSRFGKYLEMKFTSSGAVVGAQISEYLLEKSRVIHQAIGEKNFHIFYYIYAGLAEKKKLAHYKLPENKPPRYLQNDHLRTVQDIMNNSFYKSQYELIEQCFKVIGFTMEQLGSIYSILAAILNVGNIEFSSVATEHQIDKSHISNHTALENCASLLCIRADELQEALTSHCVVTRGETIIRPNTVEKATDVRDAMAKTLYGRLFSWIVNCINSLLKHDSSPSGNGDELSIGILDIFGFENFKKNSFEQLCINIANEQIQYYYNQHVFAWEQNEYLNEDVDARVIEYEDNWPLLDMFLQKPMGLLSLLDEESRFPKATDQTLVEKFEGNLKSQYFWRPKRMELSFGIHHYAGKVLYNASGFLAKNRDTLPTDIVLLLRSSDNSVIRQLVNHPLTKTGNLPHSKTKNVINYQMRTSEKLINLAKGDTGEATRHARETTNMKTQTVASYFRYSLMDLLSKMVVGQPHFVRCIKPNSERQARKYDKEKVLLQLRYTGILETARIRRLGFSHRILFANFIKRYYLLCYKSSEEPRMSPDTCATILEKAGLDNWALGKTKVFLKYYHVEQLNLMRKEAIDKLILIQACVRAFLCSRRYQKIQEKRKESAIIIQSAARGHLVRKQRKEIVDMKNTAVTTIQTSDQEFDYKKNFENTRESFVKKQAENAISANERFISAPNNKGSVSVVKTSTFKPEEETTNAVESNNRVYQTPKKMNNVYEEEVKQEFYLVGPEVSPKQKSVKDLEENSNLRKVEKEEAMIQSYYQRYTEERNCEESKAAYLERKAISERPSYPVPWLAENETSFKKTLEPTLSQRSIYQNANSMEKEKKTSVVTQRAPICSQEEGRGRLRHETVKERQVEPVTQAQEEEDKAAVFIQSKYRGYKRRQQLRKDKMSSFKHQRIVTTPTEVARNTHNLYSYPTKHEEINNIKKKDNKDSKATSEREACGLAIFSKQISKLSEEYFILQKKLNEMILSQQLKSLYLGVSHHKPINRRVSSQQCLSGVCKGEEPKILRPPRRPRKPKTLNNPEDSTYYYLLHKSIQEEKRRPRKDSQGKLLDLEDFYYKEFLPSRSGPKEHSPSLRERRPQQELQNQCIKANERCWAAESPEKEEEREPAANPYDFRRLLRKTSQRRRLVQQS

[3] = target: T1, Tyrosine-protein kinase ITK/TSK (Homo sapiens) (UniProt Q08881); assay: Inhibition of ITK (unknown origin) at 1 uM by Eurofins DiscoverX KINOMEscan analysis
T1 sequence (whole entry): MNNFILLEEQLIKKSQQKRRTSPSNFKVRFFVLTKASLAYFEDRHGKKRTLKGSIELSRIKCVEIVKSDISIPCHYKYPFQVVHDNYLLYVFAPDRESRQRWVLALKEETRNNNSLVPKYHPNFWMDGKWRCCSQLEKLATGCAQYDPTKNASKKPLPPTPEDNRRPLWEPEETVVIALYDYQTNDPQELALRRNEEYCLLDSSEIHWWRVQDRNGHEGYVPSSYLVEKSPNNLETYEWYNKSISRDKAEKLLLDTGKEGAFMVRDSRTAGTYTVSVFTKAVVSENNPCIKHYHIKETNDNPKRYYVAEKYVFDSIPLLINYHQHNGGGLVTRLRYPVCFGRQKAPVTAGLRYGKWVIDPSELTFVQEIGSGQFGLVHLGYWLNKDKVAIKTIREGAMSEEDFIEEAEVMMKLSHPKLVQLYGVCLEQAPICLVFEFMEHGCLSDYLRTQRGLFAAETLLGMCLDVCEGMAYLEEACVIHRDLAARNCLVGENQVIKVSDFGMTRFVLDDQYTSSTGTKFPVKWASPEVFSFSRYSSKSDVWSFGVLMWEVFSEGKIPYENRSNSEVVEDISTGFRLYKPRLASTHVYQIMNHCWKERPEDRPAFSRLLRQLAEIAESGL

[4] = target: Tyrosine-protein kinase BTK (Homo sapiens) (UniProt Q06187); assay: Inhibition of BTK (unknown origin) at 1 uM by Eurofins DiscoverX KINOMEscan analysis
Chain of Tyrosine-protein kinase BTK (Homo sapiens) (Q06187 whole entry): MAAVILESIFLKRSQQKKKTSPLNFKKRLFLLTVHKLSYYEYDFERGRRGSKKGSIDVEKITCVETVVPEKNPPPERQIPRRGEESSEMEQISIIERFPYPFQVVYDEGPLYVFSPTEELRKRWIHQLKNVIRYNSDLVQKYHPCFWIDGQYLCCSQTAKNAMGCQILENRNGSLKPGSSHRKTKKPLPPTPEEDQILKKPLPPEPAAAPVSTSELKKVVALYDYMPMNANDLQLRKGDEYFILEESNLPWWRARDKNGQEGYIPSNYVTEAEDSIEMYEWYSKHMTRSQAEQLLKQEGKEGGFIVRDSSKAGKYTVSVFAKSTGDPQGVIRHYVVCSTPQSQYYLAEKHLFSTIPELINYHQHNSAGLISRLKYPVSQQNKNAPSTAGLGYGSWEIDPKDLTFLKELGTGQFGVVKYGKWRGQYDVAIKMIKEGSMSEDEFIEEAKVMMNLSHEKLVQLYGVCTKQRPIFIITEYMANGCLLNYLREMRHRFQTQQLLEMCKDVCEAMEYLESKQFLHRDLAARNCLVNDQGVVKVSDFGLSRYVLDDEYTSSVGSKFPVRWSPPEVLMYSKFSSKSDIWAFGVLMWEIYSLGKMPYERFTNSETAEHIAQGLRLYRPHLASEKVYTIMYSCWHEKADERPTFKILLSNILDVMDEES

[5] = target: T2, Tyrosine-protein kinase JAK3 (Homo sapiens) (UniProt P52333); assay: Inhibition of JAK3 (unknown origin) at 1 uM by Eurofins DiscoverX KINOMEscan analysis
T2 sequence (whole entry): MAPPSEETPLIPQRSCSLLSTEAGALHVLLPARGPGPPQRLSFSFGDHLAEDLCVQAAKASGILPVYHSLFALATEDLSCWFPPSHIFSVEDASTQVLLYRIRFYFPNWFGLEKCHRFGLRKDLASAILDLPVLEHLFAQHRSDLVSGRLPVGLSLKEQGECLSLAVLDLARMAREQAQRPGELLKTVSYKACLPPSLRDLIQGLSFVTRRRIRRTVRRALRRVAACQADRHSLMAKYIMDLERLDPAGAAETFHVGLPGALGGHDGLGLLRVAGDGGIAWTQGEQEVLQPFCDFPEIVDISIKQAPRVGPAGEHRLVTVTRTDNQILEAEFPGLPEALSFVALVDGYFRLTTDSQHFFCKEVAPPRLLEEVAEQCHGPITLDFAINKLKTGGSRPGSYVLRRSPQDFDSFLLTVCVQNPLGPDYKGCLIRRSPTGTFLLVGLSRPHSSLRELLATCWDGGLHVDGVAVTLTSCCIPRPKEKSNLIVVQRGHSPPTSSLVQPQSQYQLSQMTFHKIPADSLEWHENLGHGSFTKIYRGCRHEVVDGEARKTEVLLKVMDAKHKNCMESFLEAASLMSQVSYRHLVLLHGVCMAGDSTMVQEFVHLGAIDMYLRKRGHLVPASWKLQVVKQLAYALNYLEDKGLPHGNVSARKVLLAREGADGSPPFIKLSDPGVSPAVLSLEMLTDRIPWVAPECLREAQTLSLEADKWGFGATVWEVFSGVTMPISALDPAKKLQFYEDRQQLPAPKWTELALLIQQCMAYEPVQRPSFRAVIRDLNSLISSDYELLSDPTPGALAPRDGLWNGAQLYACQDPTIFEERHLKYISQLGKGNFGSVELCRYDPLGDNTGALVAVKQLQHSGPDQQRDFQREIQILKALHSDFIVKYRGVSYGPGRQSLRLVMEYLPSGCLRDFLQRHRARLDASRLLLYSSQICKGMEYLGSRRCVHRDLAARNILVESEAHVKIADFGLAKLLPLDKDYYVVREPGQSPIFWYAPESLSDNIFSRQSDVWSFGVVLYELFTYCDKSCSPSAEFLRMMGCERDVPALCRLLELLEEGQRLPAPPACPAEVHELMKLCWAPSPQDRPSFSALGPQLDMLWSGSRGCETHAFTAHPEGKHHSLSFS

[6] = target: T3, Tyrosine-protein kinase TXK (Homo sapiens) (UniProt P42681); assay: Inhibition of TXK (unknown origin) at 1 uM by Eurofins DiscoverX KINOMEscan analysis
T3 sequence (whole entry): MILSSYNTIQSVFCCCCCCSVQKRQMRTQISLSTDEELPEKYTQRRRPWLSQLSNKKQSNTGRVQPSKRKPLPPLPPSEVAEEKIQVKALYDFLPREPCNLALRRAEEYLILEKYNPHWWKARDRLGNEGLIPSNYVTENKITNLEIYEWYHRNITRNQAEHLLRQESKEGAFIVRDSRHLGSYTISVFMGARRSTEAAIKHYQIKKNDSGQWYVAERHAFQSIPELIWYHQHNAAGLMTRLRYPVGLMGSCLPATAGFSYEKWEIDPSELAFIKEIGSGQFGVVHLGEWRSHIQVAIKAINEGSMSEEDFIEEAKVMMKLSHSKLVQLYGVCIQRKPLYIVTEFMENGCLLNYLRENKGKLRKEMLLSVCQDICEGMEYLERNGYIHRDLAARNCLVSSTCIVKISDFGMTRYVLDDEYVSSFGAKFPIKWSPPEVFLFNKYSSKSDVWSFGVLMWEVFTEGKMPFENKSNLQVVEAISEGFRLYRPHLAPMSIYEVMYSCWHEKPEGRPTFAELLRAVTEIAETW

[7] = target: Tyrosine-protein kinase Blk (Homo sapiens) (UniProt P51451); assay: Inhibition of BLK (unknown origin) at 1 uM by Eurofins DiscoverX KINOMEscan analysis
Chain of Tyrosine-protein kinase Blk (Homo sapiens) (P51451 2-505 limits assumed): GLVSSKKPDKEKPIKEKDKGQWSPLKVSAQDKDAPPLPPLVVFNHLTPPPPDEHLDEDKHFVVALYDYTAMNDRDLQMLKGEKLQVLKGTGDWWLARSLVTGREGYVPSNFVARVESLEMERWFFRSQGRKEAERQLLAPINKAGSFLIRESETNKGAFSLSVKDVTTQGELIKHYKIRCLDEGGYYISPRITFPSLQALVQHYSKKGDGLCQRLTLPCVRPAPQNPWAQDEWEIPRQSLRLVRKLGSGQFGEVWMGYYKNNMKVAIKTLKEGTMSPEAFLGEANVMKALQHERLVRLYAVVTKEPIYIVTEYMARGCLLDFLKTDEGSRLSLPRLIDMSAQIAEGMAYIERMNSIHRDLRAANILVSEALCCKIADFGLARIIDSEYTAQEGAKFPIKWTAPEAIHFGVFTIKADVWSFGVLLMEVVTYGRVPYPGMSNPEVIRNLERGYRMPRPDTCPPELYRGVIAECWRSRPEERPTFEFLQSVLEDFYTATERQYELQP

cells = settings: Homo sapiens, NCI-H1975, 72 h

Compound: C=CC(=O)Nc1ccc(OC)c(Nc2cc(-c3[nH]c(SC)nc3-c3cccc(NC(=O)c4cccc(O)c4CN4Cc5ccccc5C4=O)c3)ccn2)c1
- EC50 (BaF3): 3900 nM
- Stability [1]: Stable
- inhibition [2]: < 10%
- inhibition [3]: inactive
- inhibition [4]: inactive
- inhibition [5]: inactive
- inhibition [6]: inactive
- inhibition [7]: inactive
- EC50 (cells): 330 nM
